The numbers were not newly measured in paper PMC10967909, “Targeted Delivery of Abaloparatide to Spinal Fusion Site Accelerates Fusion Process in Rats” (Biomedicines, 2024), which cites them from elsewhere.

What is called EC50 is the midpoint of the concentration-response curve.

On series [1], the source says: A second question that logically arose is whether abaloparatide constituted the ideal payload for accelerating the fusion process. Although the PTH1R agonist, abaloparatide, has been well established as a bone anabolic agent, it is only clinically approved for treating osteoporosis. Most of abaloparatide’s applications have been limited to promoting systemic changes throughout the skeleton to reduce fracture risk.

Series [2] concerns the target T1, PTH1R (UMR-106 cells) (Rattus norvegicus, UniProt P25961).
T1 construct: evaluated in UMR-106 cells (ATCC, Manassas, VA, USA) which express PTH1R; host or cells: UMR-106 cells
T1 sequence (P25961 27-591): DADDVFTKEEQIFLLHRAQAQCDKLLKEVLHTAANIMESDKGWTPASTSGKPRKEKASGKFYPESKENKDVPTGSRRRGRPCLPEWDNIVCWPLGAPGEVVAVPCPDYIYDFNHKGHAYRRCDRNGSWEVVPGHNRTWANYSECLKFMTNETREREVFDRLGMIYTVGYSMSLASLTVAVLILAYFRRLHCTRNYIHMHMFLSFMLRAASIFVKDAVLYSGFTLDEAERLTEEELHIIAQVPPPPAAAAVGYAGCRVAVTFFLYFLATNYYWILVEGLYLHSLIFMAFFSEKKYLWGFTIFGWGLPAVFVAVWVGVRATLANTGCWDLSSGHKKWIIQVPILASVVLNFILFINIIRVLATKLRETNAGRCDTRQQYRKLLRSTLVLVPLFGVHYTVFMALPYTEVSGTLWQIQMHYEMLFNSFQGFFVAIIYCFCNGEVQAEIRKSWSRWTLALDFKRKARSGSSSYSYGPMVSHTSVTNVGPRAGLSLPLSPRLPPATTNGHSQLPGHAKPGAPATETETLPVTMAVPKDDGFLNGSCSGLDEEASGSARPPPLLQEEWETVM
Particulars: UMR 106 cells treated with drug for 1 h; Figure 2A legend, adapted; ref Low et al., 2022 [20]; read-out: EC50 (cAMP Glo assay).

For abaloparatide, the “trabecular bone growth, clinical” value in series [1] (clinically) is “promote trabecular bone growth”. The “fracture repair efficacy of nontargeted abaloparatide” value in series [1] (past efforts, ref not given) is reported as “unsuccessful due to the lack of efficacy at systemically tolerable doses”. In addition, in series [1] (preclinically), the “trabecular bone growth, preclinical” value was “promote trabecular bone growth”. Besides, in series [2], the EC50 is 0.66 nM.

B1: Ab46-D-Glu20: variant of abaloparatide linked to a linear 20 mer of D-glutamic acid that naturally accumulates on exposed hydroxyapatite (protein)
chain: AVSEHQLLHDKGKSIQDLRRRELLEKLLAKLHTAEIRATSEVSPNSEEEEEEEEEEEEEEEEEEEE
modifications: The C-terminal 20 Glu are all D-residues (linear D-Glu20, described in the text as a 20 mer of D-glutamic acid); Ab46 is tak
Take B1: in series [2], the EC50 is 0.48 nM.
